In US7332605B2, “Process for the synthesis of CXCR4 antagonist” (AnorMED, Inc., priority 2004, dated 2008):
≈ marks a conversion by molar mass, not a printed value. Where two headings read alike, the source gives them in different places.

Assays:
HIV, X4 (T-tropic) virus = conditions: in humans; cited from earlier work
[1] = Solubility of compound I in organic crystallization solvents; type: physicochemical; conditions: organic solvent or mixture
Experimental: A crystallization solvent (solvent B) is then added which can include, but is not limited to the following, or mixtures of the following: tetrahydrofuran, ethyl acetate, cumene, isopropyl acetate, n-propyl acetate, dichloromethane, ethanol, isopropanol, methanol, isopropyl ether, diethyl ether and t-butyl methyl ether. A preferred solvent is isopropyl acetate. A sufficient volume of solvent B is added to typically reach a complete solvation of compound I at an elevated temperature. The elevated temperature will depend on the nature of the solvent, with a reflux condition being the highest temperature possible.
The crystalline compound I may also be isolated from a number of different solvent systems. Compound I is soluble at >600 mg/mL in 55° C. tetrahydrofuran, and can be recovered as crystalline material by cooling the solution. Similarly, compound I can be isolated as crystalline material from a hot solution of cumene. Compound I is very soluble in dichloromethane (>700 mg/mL), but can be precipitated as a crystalline material from the solution through the addition of diethyl ether. Ethyl acetate is an effective solvent for crystallization, with solubilities of compound I of ca. 150 mg/mL at 60° C. being achievable.

[2] = Solubility of Formula I compound in aqueous media; type: physicochemical; conditions: aqueous media at a pH at or below 6.0
Text: The Formula I compound in freebase form, in a mixture of dichloromethane and another solvent can be washed with an aqueous base such as 0.5N sodium hydroxide to remove traces of hydrazine. The Formula I compound can then be extracted into a dilute aqueous acid such as 1N hydrochlororic acid. […] If the pH of the aqueous solution is below 5, it can then be adjusted to 5-7, with a preferred pH being 6.0 for the removal of impurities. Non-polar organic impurities will remain in the organic layer. A number of solvents can be used, if desired, for further extraction of non-polar organic impurities including ethyl acetate, methyl t-butyl ether, tetrahydrofuran, dichloromethane and chloroform.

## c1cc(CN2CCCNCCNCCCNCC2)ccc1CN1CCCNCCNCCCNCC1 [AMD3100]
HIV, X4 (T-tropic) virus
  effect on HIV viral load and X4 (T-tropic) virus levels: reduce HIV viral load and X4 (T-tropic) virus levels

## NCCCCN(Cc1nc2ccccc2[nH]1)C1CCCc2cccnc21 (stereo not drawn) [Compound I, N′-(1H-benzimidazol-2-ylmethyl)-N′-(5,6,7,8-tetrahydro-quinolin-8-yl)-butane-1,4-diamine]
[1]; 60 °C, isopropyl acetate at 60-65° C., read-out: complete solubility in isopropyl acetate
  solubility: ~125 mg/mL (≈ 358 mM)
[1]; dichloromethane, read-out: solubility in dichloromethane
  solubility: > 700 mg/mL
[1]; 55° C. tetrahydrofuran, read-out: solubility in tetrahydrofuran
  solubility: > 600 mg/mL
[1]; ethyl acetate at 60° C., read-out: solubility in ethyl acetate
  solubility: ~150 mg/mL (≈ 429 mM)
[2]
  solubility in aqueous media: readily soluble
